# Reference: patent publication US11542257B2, “Arylnaphthalene compounds as vacuolar-ATPase inhibitors and the use thereof” (priority 2018, dated 2023)
# Where two headings read alike, the source gives them in different places.
# Legend:
# [1] = tested on: endosomal acidification in HEK293 cells; assay: cells; format: cell-based; details: read-out: HEK AO IC50
# Ebolavirus (EBOV) = assay: organism not typed; format: cell-based; details: read-out: EBOV IC50
# V-ATPase [2] = target: T1, V-ATPase (Homo sapiens, UniProt P27449+Q93050); format: biochemical
# [3] = tested on: cytosolic pH of HEK293 cells; assay: Cytosolic pH, BCECF-AM, HEK293 cells; format: cell-based; details: FIG. 1B
# [4] = tested on: endosomal pH of HEK293 cells; assay: Intracellular endosomal pH, FITC-dextran, HEK293 cells; format: cell-based; details: HEK293, 4 h, 1-3 μM, FIG. 1C
# Marburg virus (MARV) = format: cell-based
# [5] = tested on: endosomal acidification in A549 cells; assay: Inhibition of cellular endosomal acidification, acridine orange (AO), A549 cells; format: cell-based
# V-ATPase [6] = target: T1, V-ATPase; assay: Acridine orange quenching in isolated HEK293 vesicles (proton-pumping function of V-ATPase); format: biochemical
# [7] = Cytotoxicity (MTT), A549 cells; details: human
# in vitro = details: human
# [8] = tested on: filoviral infection of primary human macrophages (PHM); format: cell-based, filovirus; details: read-out: PHM Antiviral IC50
# T1 sequence (P27449 whole entry, looked up): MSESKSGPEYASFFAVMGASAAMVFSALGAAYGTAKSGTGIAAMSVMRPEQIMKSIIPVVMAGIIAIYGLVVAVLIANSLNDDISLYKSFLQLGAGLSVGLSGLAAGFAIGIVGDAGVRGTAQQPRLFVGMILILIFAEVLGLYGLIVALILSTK
# T1 sequence (Q93050 whole entry, looked up): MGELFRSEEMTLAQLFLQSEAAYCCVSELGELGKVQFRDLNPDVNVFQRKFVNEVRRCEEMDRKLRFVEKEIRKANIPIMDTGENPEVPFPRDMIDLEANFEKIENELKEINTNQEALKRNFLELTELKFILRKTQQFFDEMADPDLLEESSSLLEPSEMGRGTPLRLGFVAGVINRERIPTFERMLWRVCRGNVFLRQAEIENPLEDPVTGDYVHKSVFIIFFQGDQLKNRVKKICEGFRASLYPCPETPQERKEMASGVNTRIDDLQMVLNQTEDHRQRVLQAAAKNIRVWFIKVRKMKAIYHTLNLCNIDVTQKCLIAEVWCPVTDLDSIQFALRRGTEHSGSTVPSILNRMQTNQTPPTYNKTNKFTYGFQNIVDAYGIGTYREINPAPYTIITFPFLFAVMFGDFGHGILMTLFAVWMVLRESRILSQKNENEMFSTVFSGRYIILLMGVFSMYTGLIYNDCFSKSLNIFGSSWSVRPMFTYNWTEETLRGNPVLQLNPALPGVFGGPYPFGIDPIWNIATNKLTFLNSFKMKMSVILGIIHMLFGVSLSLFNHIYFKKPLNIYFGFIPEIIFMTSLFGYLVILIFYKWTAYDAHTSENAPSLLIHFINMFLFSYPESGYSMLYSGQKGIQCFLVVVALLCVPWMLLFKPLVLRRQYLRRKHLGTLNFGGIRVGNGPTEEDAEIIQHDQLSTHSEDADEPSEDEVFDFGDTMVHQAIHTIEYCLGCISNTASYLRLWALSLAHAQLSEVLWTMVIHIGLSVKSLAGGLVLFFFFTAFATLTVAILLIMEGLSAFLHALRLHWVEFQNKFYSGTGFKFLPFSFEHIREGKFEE
Compound,IC50 [1],IC50 (Ebolavirus (EBOV)),"inhibition of ATP hydrolysis, in words (V-ATPase [2])",IC50 (Marburg virus (MARV)),IC50 [5],CC50 at 72 h [7],also measured
"COc1cc2c(OCCCN3CCN(CCO)CC3)c3c(c(-c4ccc5c(c4)OCO5)c2cc1OC)C(=O)OC3 [Compound 2i, 9-(benzo[d][1,3]dioxol-5-yl)-4-(3-(4-(2-hydroxyethyl)piperazin-1-yl)propoxy)-6,7-dimethoxynaphtho[2,3-c]furan-1(3H)-one]",104 ± 21.2 nM,76.2 ± 14.6 nM,–,–,–,–,–
"COc1cc2c(O)c3c(c(-c4ccc5c(c4)OCO5)c2cc1OC)C(=O)OC3 [Compound 2a, 9-(benzo[d][1,3]dioxol-5-yl)-4-hydroxy-6,7-dimethoxynaphtho[2,3-c]furan-1(3H)-one, reference compound]",476 ± 60.1 nM,678 ± 161 nM,inhibited ATP hydrolysis to a similar extent,1770 ± 80 nM,149 ± 20.5 nM,50100 ± 15500 nM,change in cytosolic pH compared to the vehicle treated control [3]: no significant change; endosomal pH after treatment [4]: ~7 pH; times less potent than bafilomycin A1 (V-ATPase-mediated fluorescent quenching) (V-ATPase [6]): about 7.5 times
"COc1cc2c(O)c3c(c(-c4ccc5c(c4)OCO5)c2cc1OC)C(=O)N(/N=C/c1ccc(C#N)cc1)C3 [Compound 3g, (E)-4-(((9-(benzo[d][1,3]dioxol-5-yl)-4-hydroxy-6,7-dimethoxy-1-oxo-1,3-dihydro-2H-benzo[f]isoindol-2-yl)imino)methyl)benzonitrile]",–,–,–,–,–,–,"IC50 ([1]; Homo sapiens, HEK293, 4 h): > 10000 nM; IC50 (Ebolavirus (EBOV); HeLa): 1690 ± 233 nM"
"CCOc1c2c(c(-c3ccc4c(c3)OCO4)c3cc(OC)c(OC)cc13)C(=O)OC2 [Compound 2c, 9-(benzo[d][1,3]dioxol-5-yl)-4-ethoxy-6,7-dimethoxynaphtho[2,3-c]furan-1(3H)-one]",254 ± 49 nM,112 ± 14.7 nM,inhibited ATP hydrolysis to a similar extent,–,52.4 ± 19.3 nM,77400 ± 11000 nM,CC50 (in vitro): 2380 nM
"COc1cc2c(O)c3c(c(-c4ccc5c(c4)OCO5)c2cc1OC)C(=O)N(/N=C/c1ccc(Cl)cc1)C3 [Compound 3d, (E)-9-(benzo[d][1,3]dioxol-5-yl)-2-((4-chlorobenzylidene)amino)-4-hydroxy-6,7-dimethoxy-2,3-dihydro-1H-benzo[f]isoindol-1-one]",9930 ± 140 nM,1170 ± 518 nM,–,–,8440 ± 367 nM,78000 ± 26400 nM,CC50 (in vitro): 28400 ± 2710 nM; times less effective than diphyllin (AO quenching) (V-ATPase [6]): 4 times
"C#CCCCOc1c2c(c(-c3ccc4c(c3)OCO4)c3cc(OC)c(OC)cc13)C(=O)OC2 [Compound 2e, 9-(benzo[d][1,3]dioxol-5-yl)-6,7-dimethoxy-4-(pent-4-yn-1-yloxy)naphtho[2,3-c]furan-1(3H)-one]",102 ± 19 nM,73.2 ± 11.9 nM,inhibited ATP hydrolysis to a similar extent,402 ± 45.9 nM,84.8 ± 11.9 nM,> 100000 nM,IC50 [8]: 240 nM; times better activity than Bafilomycin A1 (proton pumping activity of V-ATPase) (V-ATPase [6]): 2 times; times better activity than diphyllin (proton pumping activity of V-ATPase) (V-ATPase [6]): 17 times
"CCOC(=O)CN1CCN(CCCOc2c3c(c(-c4ccc5c(c4)OCO5)c4cc(OC)c(OC)cc24)C(=O)OC3)CC1 [Compound 2h, ethyl 2-(4-(3-((9-(benzo[d][1,3]dioxol-5-yl)-6,7-dimethoxy-1-oxo-1,3-dihydronaphtho[2,3-c]furan-4-yl)oxy)propyl)piperazin-1-yl)acetate]",172 ± 40.6 nM,132 ± 32.3 nM,inhibited ATP hydrolysis to a similar extent,81.6 ± 28.7 nM,101 ± 13.8 nM,> 100000 nM,IC50 [8]: 256 nM
"COc1cc2c(O)c3c(c(-c4ccc5c(c4)OCO5)c2cc1OC)C(=O)N(/N=C/c1ccccc1)C3 [Compound 3b, (E)-9-(benzo[d][1,3]dioxol-5-yl)-2-(benzylideneamino)-4-hydroxy-6,7-dimethoxy-2,3-dihydro-1H-benzo[f]isoindol-1-one]",–,–,–,–,–,–,"IC50 ([1]; Homo sapiens, HEK293, 4 h): > 10000 nM; IC50 (Ebolavirus (EBOV); HeLa): 6630 ± 437 nM"
